Data from patent publication US6495313B2, “Silver halide color photographic light-sensitive material” (Fuji Photo Film Co., Ltd., priority 1997, dated 2002).

Test: pKa of cyan coupler by pH titration (half-neutralization point)
Type: physicochemical
Conditions: tetrahydrofuran/water 6/4 by volume, solvent mixture of tetrahydrofuran and water 6/4 by volume
Description: The pKa of the coupler can be easily determined by obtaining a pH of a point where neutralization is performed just half on a pH titration curve measured in a solvent mixture of tetrahydrofuran and water in a ratio of 6/4 by volume.

pKa	Structure (SMILES)
≤ 8.7	CCCCCCCCCCCCCCOc1ccccc1NC(=O)c1cc(OC(C)=O)c2ccccc2c1O [Sample C-6]
6.02	CCCCCCCCCCCCc1ccc(S(=O)(=O)c2cc(C(=O)NCCc3ccccc3NC(C)=O)c(O)c3ccccc23)cc1 [Sample C-8]
10.3	CCCCCCCCCCCCCCCCNC(=O)c1cc(OCCS(C)(=O)=O)c2ccccc2c1O [Sample C-4, reference compound]
